IC50 data for one compound are collected here from ChEMBL document CHEMBL3638693, “Pyrazole compound and pharmaceutical use thereof” (2014).

Molecules are shown by their SMILES.

The target in this experiment is T1, Sodium/glucose cotransporter 1 (Homo sapiens, UniProt P13866).
T1 sequence (P13866 whole entry): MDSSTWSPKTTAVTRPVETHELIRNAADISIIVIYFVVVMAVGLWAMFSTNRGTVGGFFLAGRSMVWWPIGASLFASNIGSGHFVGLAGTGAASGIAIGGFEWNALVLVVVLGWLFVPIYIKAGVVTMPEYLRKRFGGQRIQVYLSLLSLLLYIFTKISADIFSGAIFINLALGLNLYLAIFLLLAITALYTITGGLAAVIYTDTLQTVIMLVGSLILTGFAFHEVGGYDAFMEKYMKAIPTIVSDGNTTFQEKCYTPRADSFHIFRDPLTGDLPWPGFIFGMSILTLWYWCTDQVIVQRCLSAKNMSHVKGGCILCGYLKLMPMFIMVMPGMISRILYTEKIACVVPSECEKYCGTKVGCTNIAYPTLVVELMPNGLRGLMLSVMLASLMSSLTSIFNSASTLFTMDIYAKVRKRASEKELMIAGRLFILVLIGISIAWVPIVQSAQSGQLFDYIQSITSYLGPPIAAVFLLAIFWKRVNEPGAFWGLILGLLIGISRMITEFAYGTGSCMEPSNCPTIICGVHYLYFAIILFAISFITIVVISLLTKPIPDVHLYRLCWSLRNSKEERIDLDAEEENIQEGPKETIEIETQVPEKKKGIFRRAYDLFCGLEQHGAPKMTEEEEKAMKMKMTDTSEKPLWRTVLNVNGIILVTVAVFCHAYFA
Put plainly: Inhibition Assay: The stable cell line expressing human SGLT1 was seeded at 5x10^4 cells/well on BioCoat Poly-D-Lysine 96 well plate with Lid (Becton Dickinson and Company) and cultured at 37 C. under 5% CO2 overnight. The medium was replaced with 100 uL/well of a Na (+) buffer (140 mM choline chloride, 2 mM KCl, 1 mM MgCl2, 1 mM CaCl2, 10 mM HEPES, 5 mM Tris, pH7.4) followed by incubation for 20 minutes at 37 C. under 5% CO2. After removing the Na (+) buffer, a test compound solution which was prepared from Na (+) buffer (140 mM NaCl, 2 mM KCl, 1 mM MgCl2, 1 mM CaCl2, 10 mM HEPES, 5 mM Tris, pH7.4) containing BSA was added thereto at 40 uL/well. In addition, Na (+) buffer containing 8 kBq of 14C-AMG and 2 mM AMG was added thereto at 40 uL/well, and was mixed well. Na (+) buffer containing BSA was added to a blank well at 40 uL/well and additionally adding a Na (+) buffer containing 8 kBq of 14C-AMG and 2 mM AMG, and was mixed well.

The IC50 is the point on the concentration scale where inhibition reaches its midpoint. Low readings indicate greater potency, high ones weaker potency. `O=C1C[C@H](C(=O)Nc2cc(-c3cccc(COCC(F)(F)F)c3)n(-c3ccc(F)cc3)n2)CN1` returned a half-inhibitory concentration (IC50) of 22 nM.
